Experimental data from US20260115331A1, “PET IMAGING OF BACTERIAL INFECTION WITH A PET PROBE” (Mayo Foundation for Medical Education and Research, priority 2022, published 2026).

Assay: PET image analysis (SUV) of inflamed tibia in foreign body inflammation rat model
Type: in vivo, rats
Details: each time point up to 120 minutes (FIG. 27)
Description: The PET probe [^68Ga]Ga-H3P2O8 was evaluated in methicillin-resistant S. aureus (MRSA) foreign-body osteomyelitis in the left tibia with a stainless steel Kirschner wire (K-wire) implant in male Wister rats, following a previously established protocol [Ref. 17]. Briefly, a 1 cm incision was made on the medial tibia and the bone exposed. A 1.5 mm hole was drilled, 0.01 mL of arachidonic acid (a sclerosing agent) and 0.05 mL of a suspension containing MRSA DRL-6169 at 10^8 cfu/mL was injected into the bone. A 5 mm threaded stainless-steel K-wire was inserted. The hole was closed with dental gypsum and the site closed. After implantation, the muscle and fascia were closed with 3-0 vicryl using simple interrupted sutures. The skin was closed with sterile wound clips and VetBond. The wound was sprayed with Aluspray and Chew Guard. After 7 days of implantation of wire, the animal was put on iron-deficient diet for 7 days and on the day of imaging, the animals were fasted for 4 hours prior to the injection of the PET probe. [^68Ga]Ga-H3P2O8 (32.81±6.28 MBq, n=18) were injected into the rat model via tail vein injection. The rat model was either a normal rat model or an osteomyelitis foreign body rat model or an inflamed foreign body rat model. PET/CT images were acquired at 15 minutes, 30 minutes, 60 minutes, and 120 minutes post-injection using Siemens Inveon MicroPET/CT Scanner (see FIGS. 17, 18, and Table 2).
To assess the preferential uptake of novel [^68Ga]Ga-H3P2O8 PET probe in infection as compared to inflammation, the same surgery and imaging was performed but omitted the MRSA. […] The probe [^68Ga]Ga-H3P2O8 was also successfully used to detect thigh infection caused by E coli in a mouse model.
To further investigate the selectivity of [^68Ga]Ga-H3P2O8 for imaging infection over inflammation, this novel probe was compared to other PET imaging probes, [^68Ga]Ga-Citrate and [^18F]FDG in an inflammation model. In a side-by-side study, all three probes were used to image inflammation (i.e., an inflamed tibia) in an osteomyelitis foreign body rat model.

## OC[C@H]1OC(O)[C@H]([18F])[C@@H](O)[C@@H]1O (some centres unmarked) [[^18F]FDG, [^18F]Fluorodeoxyglucose]
  difference in mean SUV between the probes in inflamed tibia: no significant difference

## O=C([O-])CC(O)(CC(=O)[O-])C(=O)[O-].[Ga+3] [[^68Ga]Ga-Citrate]
  difference in mean SUV between the probes in inflamed tibia: no significant difference
